According to patent US9586950B2 (MERCK SHARP & DOHME CORP., priority 2012, dated 2017):

Tests used:
[1] = molecular target: hOX1R (orexin-1 receptor) (Rattus norvegicus, UniProt P56718); assay: FLIPR Ca2+ Flux Assay, hOX1R FLIPR; assay type: cell-based; conditions: CHO cells, 70 pM Ala-6,12 human orexin-A agonist
Procedure: (§1) In a typical experiment the OX1 and OX2 receptor antagonistic activity of the compounds of the present invention was determined in accordance with the following experimental method. For intracellular calcium measurements, Chinese hamster ovary (CHO) cells expressing the rat orexin-1 receptor or the human orexin-2 receptor, are grown in Iscove's modified DMEM containing 2 mM L-glutamine, […], 1% hypoxanthine-thymidine supplement, 100 U/ml penicillin, 100 μg/ml streptomycin and 10% heat-inactivated fetal calf serum (FCS). The cells are seeded at 20,000 cells/well into Becton-Dickinson black 384-well clear bottom sterile plates coated with poly-D-lysine. All reagents were from GIBCO-Invitrogen Corp. The seeded plates are incubated overnight at 37° C. and 5% CO2. Ala-6,12 human orexin-A as the agonist is prepared as a 1 mM stock solution in 1% bovine serum albumin (BSA) and diluted in assay buffer (HBSS containing 20 mM HEPES, 0.1% BSA and 2.5 mM probenecid, pH7.4) for use in the assay at a final concentration of 70 pM. Test compounds are prepared as 10 mM stock solution in DMSO, then diluted in 384-well plates, first in DMSO, then assay buffer. On the day of the assay, cells are washed 3 times with 100 μl assay buffer and then incubated for 60 min (37° C., 5% CO2) in 60 μl assay buffer containing 1 μM Fluo-4AM ester, 0.02% pluronic acid, and 1% BSA. The dye loading solution is then aspirated and cells are washed 3 times with 100 μl assay buffer. 30 μl of that same buffer is left in each well. Within the Fluorescent Imaging Plate Reader (FLIPR, Molecular Devices), test compounds are added to the plate in a volume of 25 μl, incubated for 5 min and finally 25 μl of agonist is added. Fluorescence is measured for each well at 1 second intervals for 5 minutes and the height of each fluorescence peak is compared to the height of the fluorescence peak induced by 70 pM Ala-6,12 orexin-A with buffer in place of antagonist. […] Alternatively, compound potency can be assessed by a radioligand binding assay (described in Bergman et. al. Bioorg. Med. Chem. Lett. 2008, 18, 1425-1430) in which the inhibition constant (Ki) is determined in membranes prepared from CHO cells expressing either the OX1 or OX2 receptor. The intrinsic orexin receptor antagonist activity of a compound which may be used in the present invention may be determined by these assays.

human orexin-2 receptor [2] = molecular target: T1, human orexin-2 receptor (Homo sapiens (Human), UniProt O43614); assay: FLIPR Ca2+ Flux Assay, hOX2R FLIPR; assay type: cell-based; conditions: CHO cells, 70 pM Ala-6,12 human orexin-A agonist
T1 sequence (O43614 whole entry): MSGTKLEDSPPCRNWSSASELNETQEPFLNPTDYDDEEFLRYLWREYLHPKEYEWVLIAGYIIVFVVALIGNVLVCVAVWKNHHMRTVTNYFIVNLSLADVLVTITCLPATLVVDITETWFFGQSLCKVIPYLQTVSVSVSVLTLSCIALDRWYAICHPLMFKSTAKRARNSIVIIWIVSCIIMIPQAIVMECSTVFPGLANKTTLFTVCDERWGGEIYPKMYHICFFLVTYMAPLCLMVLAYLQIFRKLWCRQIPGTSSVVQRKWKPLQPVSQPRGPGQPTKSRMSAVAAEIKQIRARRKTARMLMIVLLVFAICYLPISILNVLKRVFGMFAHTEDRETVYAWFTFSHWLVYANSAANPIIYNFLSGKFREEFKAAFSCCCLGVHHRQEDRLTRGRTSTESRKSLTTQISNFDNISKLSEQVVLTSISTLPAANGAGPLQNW
Procedure: as §1

human orexin-2 receptor [3] = molecular target: T1, human orexin-2 receptor; assay: radioligand binding assay, hOX2R BIND; conditions: membranes from CHO cells expressing OX2 receptor; read-out: hOX2R BIND hKi
Procedure: as §1

Q: For `COC(=O)c1c(C#N)ccnc1O[C@@H]1CC[C@@H](C)N(C(=O)c2ccccc2-n2nccn2)C1` [Example 1, Methyl 4-cyano-2-{[(3R,6R)-6-methyl-1-{[2-(2H-1,2,3-triazol-2-yl)phenyl]carbonyl}piperidin-3-yl]oxy}pyridine-3-carboxylate], which IC50 [1] is on record?
A: 749 nM

Q: And the IC50 (human orexin-2 receptor [2])?
A: 19 nM

Q: What about the Ki (human orexin-2 receptor [3]) of the same compound?
A: 0.46 nM

Q: `COC(=O)c1c(C#N)ccnc1O[C@@H]1CC[C@@H](C)N(C(=O)c2ccccc2-c2nc(C)no2)C1` [Example 2, Methyl 4-cyano-2-{[(3R,6R)-6-methyl-1-{[2-(3-methyl-1,2,4-oxadiazol-5-yl)phenyl]carbonyl}piperidin-3-yl]oxy}pyridine-3-carboxylate] was tested. Which IC50 [1] did it give?
A: 584 nM

Q: And the IC50 (human orexin-2 receptor [2])?
A: 20.8 nM

Q: And the Ki (human orexin-2 receptor [3])?
A: 0.37 nM

Q: How did the IC50 (human orexin-2 receptor [2]) turn out when `COC(=O)c1c(C#N)ccnc1O[C@@H]1CC[C@@H](C)N(C(=O)c2ccc(OC)nc2-n2nccn2)C1` [Example 3, methyl 4-cyano-2-{[(3R,6R)-1-{[6-methoxy-2-(2H-1,2,3-triazol-2-yl)pyridin-3-yl]carbonyl}-6-methylpiperidin-3-yl]oxy}pyridine-3-carboxylate] was run?
A: 33.8 nM

Q: What about the Ki (human orexin-2 receptor [3]) of the same compound?
A: 1.9 nM

Q: `COC(=O)c1c(C#N)ccnc1O[C@@H]1CC[C@@H](C)N(C(=O)c2cccc(F)c2-n2nccn2)C1` [Example 4, methyl 4-cyano-2-{[(3R,6R)-1-{[3-fluoro-2-(2H-1,2,3-triazol-2-yl)phenyl]carbonyl}-6-methylpiperidin-3-yl]oxy}pyridine-3-carboxylate] was tested. Which IC50 [1] did it give?
A: 1020 nM

Q: What about the IC50 (human orexin-2 receptor [2]) of the same compound?
A: 15.7 nM

Q: And the Ki (human orexin-2 receptor [3])?
A: 0.44 nM

Q: How did the IC50 [1] turn out when `COC(=O)c1c(C#N)ccnc1O[C@@H]1CC[C@@H](C)N(C(=O)c2ccc(F)cc2-n2nccn2)C1` [Example 5, methyl 4-cyano-2-{[(3R,6R)-1-{[4-fluoro-2-(2H-1,2,3-triazol-2-yl)phenyl]carbonyl}-6-methylpiperidin-3-yl]oxy}pyridine-3-carboxylate] was run?
A: 1010 nM

Q: And the IC50 (human orexin-2 receptor [2])?
A: 21.8 nM

Q: And the Ki (human orexin-2 receptor [3])?
A: 0.66 nM

Q: What does the source list for `COC(=O)c1c(C#N)ccnc1O[C@@H]1CC[C@@H](C)N(C(=O)c2cc(F)ccc2-n2nccn2)C1` [Example 6, methyl 4-cyano-2-{[(3R,6R)-1-{[5-fluoro-2-(2H-1,2,3-triazol-2-yl)phenyl]carbonyl}-6-methylpiperidin-3-yl]oxy}pyridine-3-carboxylate]?
A: IC50 [1]: 971 nM; IC50 (human orexin-2 receptor [2]): 18.2 nM; Ki (human orexin-2 receptor [3]): 0.42 nM

Q: Which IC50 [1] does the source give for `COC(=O)c1c(C#N)ccnc1O[C@@H]1CC[C@@H](C)N(C(=O)c2c(F)cccc2-n2nccn2)C1` [Example 7, methyl 4-cyano-2-{[(3R,6R)-1-{[2-fluoro-6-(2H-1,2,3-triazol-2-yl)phenyl]carbonyl}-6-methylpiperidin-3-yl]oxy}pyridine-3-carboxylate] here?
A: 432 nM

Q: And the IC50 (human orexin-2 receptor [2])?
A: 24 nM

Q: What about the Ki (human orexin-2 receptor [3]) of the same compound?
A: 0.33 nM

Q: For `COC(=O)c1c(C#N)ccnc1O[C@@H]1CC[C@@H](C)N(C(=O)c2cc(F)ccc2-c2nc(C)no2)C1` [Example 8, methyl 4-cyano-2-{[(3R,6R)-1-{[5-fluoro-2-(3-methyl-1,2,4-oxadiazol-5-yl)phenyl]carbonyl}-6-methylpiperidin-3-yl]oxy}pyridine-3-carboxylate], which IC50 [1] is on record?
A: 1470 nM

Q: And the IC50 (human orexin-2 receptor [2])?
A: 24.9 nM

Q: What about the Ki (human orexin-2 receptor [3]) of the same compound?
A: 0.44 nM

Q: For `COC(=O)c1c(C#N)ccnc1O[C@@H]1CC[C@@H](C)N(C(=O)c2c(F)cccc2-c2nc(C)no2)C1` [Example 9, methyl 4-cyano-2-{[(3R,6R)-1-{[2-fluoro-6-(3-methyl-1,2,4-oxadiazol-5-yl)phenyl]carbonyl}-6-methylpiperidin-3-yl]oxy}pyridine-3-carboxylate], which IC50 (human orexin-2 receptor [2]) is on record?
A: 38.8 nM

Q: And the Ki (human orexin-2 receptor [3])?
A: 1.1 nM

Q: What does the source list for `COC(=O)c1c(C#N)ccnc1O[C@@H]1CC[C@@H](C)N(C(=O)c2ccccc2-c2noc(C)n2)C1` [Example 10, methyl 4-cyano-2-{[(3R,6R)-6-methyl-1-{[2-(5-methyl-1,2,4-oxadiazol-3-yl)phenyl]carbonyl}piperidin-3-yl]oxy}pyridine-3-carboxylate]?
A: IC50 [1]: 698 nM; IC50 (human orexin-2 receptor [2]): 6.5 nM; Ki (human orexin-2 receptor [3]): 0.53 nM

Q: What does the source list for `COC(=O)c1c(C#N)ccnc1O[C@@H]1CC[C@@H](C)N(C(=O)c2cccc(F)c2-c2noc(C)n2)C1` [Example 11, methyl 4-cyano-2-{[(3R,6R)-1-{[3-fluoro-2-(5-methyl-1,2,4-oxadiazol-3-yl)phenyl]carbonyl}-6-methylpiperidin-3-yl]oxy}pyridine-3-carboxylate]?
A: IC50 [1]: 956 nM; IC50 (human orexin-2 receptor [2]): 16.2 nM; Ki (human orexin-2 receptor [3]): 0.5 nM

Q: What does the source list for `COC(=O)c1c(C#N)ccnc1O[C@@H]1CC[C@@H](C)N(C(=O)c2ccc(F)cc2-c2noc(C)n2)C1` [Example 12, methyl 4-cyano-2-{[(3R,6R)-1-{[4-fluoro-2-(5-methyl-1,2,4-oxadiazol-3-yl)phenyl]carbonyl}-6-methylpiperidin-3-yl]oxy}pyridine-3-carboxylate]?
A: IC50 (human orexin-2 receptor [2]): 30.2 nM; Ki (human orexin-2 receptor [3]): 1.2 nM

Q: `COC(=O)c1c(C#N)ccnc1O[C@@H]1CC[C@@H](C)N(C(=O)c2cc(F)ccc2-c2noc(C)n2)C1` [Example 13, methyl 4-cyano-2-{[(3R,6R)-1-{[5-fluoro-2-(5-methyl-1,2,4-oxadiazol-3-yl)phenyl]carbonyl}-6-methylpiperidin-3-yl]oxy}pyridine-3-carboxylate] was tested. Which IC50 [1] did it give?
A: 1030 nM

Q: And the IC50 (human orexin-2 receptor [2])?
A: 16.8 nM

Q: And the Ki (human orexin-2 receptor [3])?
A: 0.5 nM

Q: How did the IC50 (human orexin-2 receptor [2]) turn out when `COC(=O)c1c(C#N)ccnc1O[C@@H]1CC[C@@H](C)N(C(=O)c2c(F)cccc2-c2noc(C)n2)C1` [Example 14, methyl 4-cyano-2-{[(3R,6R)-1-{[2-fluoro-6-(5-methyl-1,2,4-oxadiazol-3-yl)phenyl]carbonyl}-6-methylpiperidin-3-yl]oxy}pyridine-3-carboxylate] was run?
A: 14.5 nM

Q: And the Ki (human orexin-2 receptor [3])?
A: 0.99 nM

Q: `COC(=O)c1c(C#N)ccnc1O[C@@H]1CC[C@@H](C)N(C(=O)c2ccc(F)cc2-c2nc(C)no2)C1` [Example 15, methyl 4-cyano-2-{[(3R,6R)-1-{[4-fluoro-2-(3-methyl-1,2,4-oxadiazol-5-yl)phenyl]carbonyl}-6-methylpiperidin-3-yl]oxy}pyridine-3-carboxylate] was tested. Which IC50 [1] did it give?
A: 3080 nM

Q: And the IC50 (human orexin-2 receptor [2])?
A: 31.8 nM

Q: What about the Ki (human orexin-2 receptor [3]) of the same compound?
A: 2.2 nM

Q: Which IC50 (human orexin-2 receptor [2]) does the source give for `COC(=O)c1c(C#N)ccnc1O[C@@H]1CC[C@@H](C)N(C(=O)c2cccc(C)c2-n2nccn2)C1` [Example 16, methyl 4-cyano-2-{[(3R,6R)-6-methyl-1-{[3-methyl-2-(2H-1,2,3-triazol-2-yl)phenyl]carbonyl}piperidin-3-yl]oxy}pyridine-3-carboxylate] here?
A: 27.7 nM

Q: And the Ki (human orexin-2 receptor [3])?
A: 0.52 nM

Q: How did the IC50 (human orexin-2 receptor [2]) turn out when `COC(=O)c1c(C#N)ccnc1O[C@@H]1CC[C@@H](C)N(C(=O)c2ccc(C)cc2-n2nccn2)C1` [Example 17, methyl 4-cyano-2-{[(3R,6R)-6-methyl-1-{[4-methyl-2-(2H-1,2,3-triazol-2-yl)phenyl]carbonyl}piperidin-3-yl]oxy}pyridine-3-carboxylate] was run?
A: 24.3 nM

Q: What about the Ki (human orexin-2 receptor [3]) of the same compound?
A: 0.58 nM

Q: Which IC50 [1] does the source give for `COC(=O)c1c(C#N)ccnc1O[C@@H]1CC[C@@H](C)N(C(=O)c2cc(C)ccc2-n2nccn2)C1` [Example 18, methyl 4-cyano-2-{[(3R,6R)-6-methyl-1-{[5-methyl-2-(2H-1,2,3-triazol-2-yl)phenyl]carbonyl}piperidin-3-yl]oxy}pyridine-3-carboxylate] here?
A: 311 nM

Q: What about the IC50 (human orexin-2 receptor [2]) of the same compound?
A: 22 nM

Q: And the Ki (human orexin-2 receptor [3])?
A: 0.48 nM

Q: Which IC50 (human orexin-2 receptor [2]) does the source give for `COC(=O)c1c(C#N)ccnc1O[C@@H]1CC[C@@H](C)N(C(=O)c2cccc(F)c2-c2ncccn2)C1` [Example 21, methyl 4-cyano-2-({(3R,6R)-1-[(3-fluoro-2-pyrimidin-2-ylphenyl)carbonyl]-6-methylpiperidin-3-yl}oxy)pyridine-3-carboxylate] here?
A: 36.3 nM

Q: What about the Ki (human orexin-2 receptor [3]) of the same compound?
A: 1.2 nM

Q: For `COC(=O)c1c(C#N)ccnc1O[C@@H]1CC[C@@H](C)N(C(=O)c2c(F)cccc2-c2ncccn2)C1` [Example 24, methyl 4-cyano-2-({(3R,6R)-1-[(2-fluoro-6-pyrimidin-2-ylphenyl)carbonyl]-6-methylpiperidin-3-yl}oxy)pyridine-3-carboxylate], which IC50 (human orexin-2 receptor [2]) is on record?
A: 32.8 nM

Q: What about the Ki (human orexin-2 receptor [3]) of the same compound?
A: 0.42 nM

Q: `COC(=O)c1c(C#N)ccnc1O[C@@H]1CC[C@@H](C)N(C(=O)c2ccccc2C2CCC2)C1` [Example 26, Methyl 4-cyano-2-(((3R,6R)-1-(2-cyclobutylbenzoyl)-6-methylpiperidin-3-yl)oxy)nicotinate] was tested. Which IC50 (human orexin-2 receptor [2]) did it give?
A: 19.3 nM

Q: What about the Ki (human orexin-2 receptor [3]) of the same compound?
A: 0.26 nM
